Values after ≈ are worked out from the molar mass of the structure shown.
Legend:
Test in all cases: Sulforhodamine B (SRB) assay
Type in all cases: cell-based
[1] = system: COLO205; conditions: Homo sapiens, COLO 205; COLO205, Colon; 48 hours; read-out: GI50 (SRB in vitro cytotoxicity)
Procedure: (§1) Growth inhibitory effect of Compound A on the cells listed below was measured by the sulforhodamine B assay. SW480 cells in 100 μl media were plated in each well of 96-well plate and allowed to attach for 24 hours. Compound A was added to the wells to produce the desired final concentrations, and the plates were incubated at 37° C. for 48 hours. The cells were then fixed by gentle addition of 100 μl of cold (4° C.) 10% trichloroacetic acid to each well, followed by incubation at 4° C. for 1 hour. Plates were washed with deionized water five times and allowed to air dry. The cells were then stained by addition of 100 μl SRB solution (0.4% SRB(w/v) in 1% acetic acid (v/v)) to wells for 15 min. After staining, the plates were quickly washed five times with 1% acetic acid to remove any unbound dye, and allowed to air dry. Bound dye was solubilized with 10 mmol/L Tris base (pH 10.5) prior to reading the plates. The optical density (OD) was read on a plate reader at a wavelength of 515 nm with Molecular Device. Inhibition of growth was expressed as relative viability (% of control) and GI50 was calculated from concentration-response curves after log/probit transformation.

[2] = system: RPMI8226; conditions: Homo sapiens, RPMI-8226; RPMI8226, Leukemia; 48 hours; read-out: GI50 (SRB in vitro cytotoxicity)
Procedure: as §1

[3] = system: SW620; conditions: Homo sapiens, SW-620; SW620, Colon; 48 hours; read-out: GI50 (SRB in vitro cytotoxicity)
Procedure: as §1

O=c1[nH]cc(F)c(=O)[nH]1 [Compound 5-FU, 5-fluorouracil]
GI50 [1]: 1.13 µg/mL (≈ 8.69 µM)
GI50 [2]: > 10 µg/mL
GI50 [3]: 5.57 µg/mL (≈ 42.8 µM)

Reference: patent publication US7671054B1, “Reverse-turn mimetics and method relating thereto” (Choongwae Pharma Corporation, priority 2001, dated 2010)
